Tested on: apolipoprotein B
Test: Apolipoprotein B (apo B) inhibition test in cultured human liver cells (Hepg2-cells)
Format: cell-based
Conditions: concentration of the drug needed to reduce apoB secretion to 50% of the control, overnight at 37° C.
Procedure: Cultured human liver cells (Hepg2-cells), which synthesize and secrete low-density lipoproteins, were incubated overnight at 37° C. in a liquid medium containing radioactively labelled leucine. Thus radioactively labelled leucine was incorporated into the apolipoprotein B. The liquid medium was decanted and the apolipoprotein B was isolated by means of a double immunoprecipitation, i.e. first an apolipoprotein B-specific antibody (antibody1) was added to the liquid medium and subsequently a second antibody (antibody2) was added which binds specifically to the apoB-antibody1 -complex. The thus formed apoB-antibody1 -antibody2 complex precipitated and was isolated by centrifuge. Quantification of the amount of apolipoprotein B synthesized during the night resulted from measuring the radioactivity of the isolated complex. To measure the inhibiting activity of the test compound, that test compound was added to the liquid medium at different concentrations and the concentration of apolipoprotein B synthesized in the presence of a test compound (concentration apoB(after)) was compared to the concentration of apolipoprotein B which was synthesized in the absence of the test compound (concentration apoB(control)). For each experiment the inhibition of apolipoprotein-B formation was expressed as
% inhibition=100×(1-concentration of apoB(after)/concentration
When more experiments were carried out for the same concentration, the median value of the inhibition calculated for these experiments was calculated. IC50 -values (concentration of the drug needed to reduce apoB secretion to 50% of the control) were also computed.

SMILES | IC50
CC(C)n1cnn(-c2ccc(N3CCN(c4ccc(OC[C@@H]5CO[C@@](CSc6nncn6C)(c6ccc(F)cc6)O5)cc4)CC3)cc2)c1=O (relative stereo) [Compound 4] | 260 nM
CC(C)Cn1cnn(-c2ccc(N3CCN(c4ccc(OC[C@@H]5CO[C@@](CSc6nncn6C)(c6ccc(F)cc6)O5)cc4)CC3)cc2)c1=O (relative stereo) [Compound 5] | 200 nM
CCC(CC)n1cnn(-c2ccc(N3CCN(c4ccc(OC[C@@H]5CO[C@@](CSc6nncn6C)(c6ccc(F)cc6)O5)cc4)CC3)cc2)c1=O (relative stereo) [Compound 12] | 190 nM
Cn1cnnc1SC[C@@]1(c2ccc(F)cc2F)OC[C@@H](COc2ccc(N3CCN(c4ccc(-n5ncn(C6CCCC6)c5=O)cc4)CC3)cc2)O1 (relative stereo) [Compound 13] | 510 nM
CC(C)Cn1ncn(-c2ccc(N3CCN(c4ccc(OC[C@@H]5CO[C@@](CSc6nncn6C)(c6ccc(Cl)cc6)O5)cc4)CC3)cc2)c1=O (relative stereo) [Compound 23] | 140 nM
CCCCCn1ncn(-c2ccc(N3CCN(c4ccc(OC[C@@H]5CO[C@@](CSc6nncn6C)(c6ccc(Cl)cc6)O5)cc4)CC3)cc2)c1=O (relative stereo) [Compound 32] | 180 nM
Cn1cnnc1SC[C@@]1(c2ccc(F)cc2F)OC[C@@H](COc2ccc(N3CCN(c4ccc(-n5cnn(C6CCCC6)c5=O)cc4)CC3)cc2)O1 (relative stereo) [Compound 37] | 230 nM
CCC(C)n1ncn(-c2ccc(N3CCN(c4ccc(OC[C@@H]5CO[C@@](CSc6nnc(C(F)(F)F)[nH]6)(c6ccc(Cl)cc6)O5)cc4)CC3)cc2)c1=O (relative stereo) [Compound 49] | 850 nM
CCC(C)n1ncn(-c2ccc(N3CCN(c4ccc(OC[C@@H]5CO[C@@](CSc6nnc(C(F)(F)F)n6C)(c6ccc(Cl)cc6)O5)cc4)CC3)cc2)c1=O (relative stereo) [Compound 50] | 260 nM
CCC(C)n1ncn(-c2ccc(N3CCN(c4ccc(OC[C@H]5CO[C@](CSc6nncn6C(C)C)(c6ccc(Cl)cc6)O5)cc4)CC3)cc2)c1=O (relative stereo) [Compound 52] | 250 nM
CCC(C)n1ncn(-c2ccc(N3CCN(c4ccc(OC[C@H]5CO[C@](CSc6nnc(C)n6C)(c6ccc(Cl)cc6)O5)cc4)CC3)cc2)c1=O (relative stereo) [Compound 56] | 230 nM
CCC(C)n1ncn(-c2ccc(N3CCN(c4ccc(OC[C@H]5CO[C@](CSc6nnc(O)n6C)(c6ccc(Cl)cc6)O5)cc4)CC3)cc2)c1=O (relative stereo) [Compound 58] | 310 nM
CCC(C)n1ncn(-c2ccc(N3CCN(c4ccc(OC[C@H]5CO[C@](CSc6ncnn6C)(c6ccc(F)cc6F)O5)cc4)CC3)cc2)c1=O (relative stereo) [Compound 62] | 190 nM
CCC(CC)n1ncn(-c2ccc(N3CCN(c4ccc(OC[C@H]5CO[C@](CSc6ncnn6C)(c6ccc(F)cc6)O5)cc4)CC3)cc2)c1=O (relative stereo) [Compound 64] | 160 nM
CCC(CC)n1ncn(-c2ccc(N3CCN(c4ccc(OC[C@H]5CO[C@](CSc6ncnn6C)(c6ccc(F)cc6F)O5)cc4)CC3)cc2)c1=O (relative stereo) [Compound 65] | 290 nM
Cn1ncnc1SC[C@]1(c2ccc(F)cc2)OC[C@H](COc2ccc(N3CCN(c4ccc(-n5cnn(C6CCCC6)c5=O)cc4)CC3)cc2)O1 (relative stereo) [Compound 66] | 130 nM
Cn1ncnc1SC[C@]1(c2ccc(F)cc2F)OC[C@H](COc2ccc(N3CCN(c4ccc(-n5cnn(C6CCCC6)c5=O)cc4)CC3)cc2)O1 (relative stereo) [Compound 67] | 180 nM

The next lines start with the values.

IC50 | SMILES
92 nM | CC(C)n1cnn(-c2ccc(N3CCN(c4ccc(OC[C@@H]5CO[C@@](CSc6nncn6C)(c6ccc(Cl)cc6)O5)cc4)CC3)cc2)c1=O (relative stereo) [Compound 1]
47 nM | CCC(C)n1cnn(-c2ccc(N3CCN(c4ccc(OC[C@@H]5CO[C@@](CSc6nncn6C)(c6ccc(Cl)cc6)O5)cc4)CC3)cc2)c1=O (relative stereo) [Compound 2]
91 nM | CC(C)Cn1cnn(-c2ccc(N3CCN(c4ccc(OC[C@@H]5CO[C@@](CSc6nncn6C)(c6ccc(Cl)cc6)O5)cc4)CC3)cc2)c1=O (relative stereo) [Compound 3]
120 nM | Cn1cnnc1SC[C@@]1(c2ccc(Cl)cc2)OC[C@@H](COc2ccc(N3CCN(c4ccc(-n5ncn(C6CCCC6)c5=O)cc4)CC3)cc2)O1 (relative stereo) [Compound 6]
79 nM | CCC(CC)n1cnn(-c2ccc(N3CCN(c4ccc(OC[C@@H]5CO[C@@](CSc6nncn6C)(c6ccc(Cl)cc6)O5)cc4)CC3)cc2)c1=O (relative stereo) [Compound 7]
130 nM | CCCn1cnn(-c2ccc(N3CCN(c4ccc(OC[C@@H]5CO[C@@](CSc6nncn6C)(c6ccc(Cl)cc6)O5)cc4)CC3)cc2)c1=O (relative stereo) [Compound 8]
110 nM | CCC(C)n1cnn(-c2ccc(N3CCN(c4ccc(OC[C@@H]5CO[C@@](CSc6nncn6C)(c6ccc(F)cc6)O5)cc4)CC3)cc2)c1=O (relative stereo) [Compound 9]
48 nM | CCCCn1cnn(-c2ccc(N3CCN(c4ccc(OC[C@@H]5CO[C@@](CSc6nncn6C)(c6ccc(Cl)cc6)O5)cc4)CC3)cc2)c1=O (relative stereo) [Compound 15]
41 nM | CCCCCn1cnn(-c2ccc(N3CCN(c4ccc(OC[C@@H]5CO[C@@](CSc6nncn6C)(c6ccc(Cl)cc6)O5)cc4)CC3)cc2)c1=O (relative stereo) [Compound 18]
71 nM | CCC(C)n1ncn(-c2ccc(N3CCN(c4ccc(OC[C@@H]5CO[C@@](CSc6nncn6C)(c6ccc(Cl)cc6)O5)cc4)CC3)cc2)c1=O (relative stereo) [Compound 22, (±)-cis-4-[4-[4-[4-[[2-(4-chlorophenyl)-2-[[(4-methyl-4H-1,2,4-triazol-3-yl)thio]methyl]-1,3-dioxolan-4-yl]methoxy]phenyl]-1-piperazinyl]-phenyl]-2,4-dihydro-2-(1-methylpropyl)-3H-1,2,4-triazol-3-one]
58 nM | Cn1cnnc1SC[C@@]1(c2ccc(Cl)cc2)OC[C@@H](COc2ccc(N3CCN(c4ccc(-n5cnn(C6CCCC6)c5=O)cc4)CC3)cc2)O1 (relative stereo) [Compound 24]
97 nM | CCC(C)n1ncn(-c2ccc(N3CCN(c4ccc(OC[C@@H]5CO[C@@](CSc6nncn6C)(c6ccc(F)cc6)O5)cc4)CC3)cc2)c1=O (relative stereo) [Compound 28]
91 nM | CC(C)n1ncn(-c2ccc(N3CCN(c4ccc(OC[C@@H]5CO[C@@](CSc6nncn6C)(c6ccc(Cl)cc6)O5)cc4)CC3)cc2)c1=O (relative stereo) [Compound 33]
77 nM | Cn1cnnc1SC[C@@]1(c2ccc(F)cc2)OC[C@@H](COc2ccc(N3CCN(c4ccc(-n5cnn(C6CCCC6)c5=O)cc4)CC3)cc2)O1 (relative stereo) [Compound 35]
110 nM | CCC(CC)n1ncn(-c2ccc(N3CCN(c4ccc(OC[C@@H]5CO[C@@](CSc6nncn6C)(c6ccc(F)cc6)O5)cc4)CC3)cc2)c1=O (relative stereo) [Compound 43]
51 nM | CCC(CC)n1ncn(-c2ccc(N3CCN(c4ccc(OC[C@@H]5CO[C@@](CSc6nncn6C)(c6ccc(Cl)cc6)O5)cc4)CC3)cc2)c1=O (relative stereo) [Compound 44]
47 nM | CCCCn1cnnc1SC[C@@]1(c2ccc(Cl)cc2)OC[C@@H](COc2ccc(N3CCN(c4ccc(-n5cnn(C(C)CC)c5=O)cc4)CC3)cc2)O1 (relative stereo) [Compound 51]
84 nM | CCC(C)n1ncn(-c2ccc(N3CCN(c4ccc(OC[C@H]5CO[C@](CSc6nncn6CC)(c6ccc(Cl)cc6)O5)cc4)CC3)cc2)c1=O (relative stereo) [Compound 53]
79 nM | CCC(C)n1ncn(-c2ccc(N3CCN(c4ccc(OC[C@H]5CO[C@](CSc6nncn6CC(C)C)(c6ccc(Cl)cc6)O5)cc4)CC3)cc2)c1=O (relative stereo) [Compound 54]
78 nM | CCCn1cnnc1SC[C@]1(c2ccc(Cl)cc2)OC[C@H](COc2ccc(N3CCN(c4ccc(-n5cnn(C(C)CC)c5=O)cc4)CC3)cc2)O1 (relative stereo) [Compound 55]
46 nM | CCC(C)n1ncn(-c2ccc(N3CCN(c4ccc(OC[C@H]5CO[C@](CSc6ncnn6C)(c6ccc(Cl)cc6)O5)cc4)CC3)cc2)c1=O (relative stereo) [Compound 60]
81 nM | CC(C)Cn1ncn(-c2ccc(N3CCN(c4ccc(OC[C@H]5CO[C@](CSc6ncnn6C)(c6ccc(Cl)cc6)O5)cc4)CC3)cc2)c1=O (relative stereo) [Compound 61]
46 nM | CCC(C)n1ncn(-c2ccc(N3CCN(c4ccc(OC[C@H]5CO[C@](CSc6ncnn6C)(c6ccc(F)cc6)O5)cc4)CC3)cc2)c1=O (relative stereo) [Compound 63]
81 nM | CC(C)n1cnn(-c2ccc(N3CCN(c4ccc(OC[C@H]5CO[C@](CSc6ncnn6C)(c6ccc(Cl)cc6)O5)cc4)CC3)cc2)c1=O (relative stereo) [Compound 68]
26 nM | CCC(C)n1cnn(-c2ccc(N3CCN(c4ccc(OC[C@H]5CO[C@](CSc6ncnn6C)(c6ccc(Cl)cc6)O5)cc4)CC3)cc2)c1=O (relative stereo) [Compound 69]
120 nM | CCC(C)n1cnn(-c2ccc(N3CCN(c4ccc(OC[C@H]5CO[C@](CSc6ncnn6C)(c6ccc(F)cc6F)O5)cc4)CC3)cc2)c1=O (relative stereo) [Compound 71]
